The assay concerns CD2F1 mice, L1210 leukemia ip, survival T/C. Briefly: NCI In Vivo Anticancer Drug Screen. Data for tumor model L1210 Leukemia (intraperitoneal) in CD2F1 (CDF1) mice. The note with it: endpoint: mean survival time, higher = longer survival. In a few lines: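 Implant tumor; dose compound or vehicle; measure endpoint in both groups; report treated divided by control.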
The mark [1] stands for this setting: dose: 100.0 mg/kg/injection, schedule: Q01DX001 (ip), vehicle: saline with Tween-80.
The mark [2] stands for this setting: dose: 200.0 mg/kg/injection, schedule: Q01DX001 (ip), vehicle: saline with Tween-80.
[3] abbreviates: dose: 400.0 mg/kg/injection, schedule: Q01DX001 (ip), vehicle: saline with Tween-80.
Where [4] appears, read: dose: 50.0 mg/kg/injection, schedule: Q01DX009 (ip), vehicle: saline with Tween-80.
Setting [5] is: dose: 100.0 mg/kg/injection, schedule: Q04DX002 (ip), vehicle: saline with Tween-80.
The mark [6] stands for this setting: dose: 200.0 mg/kg/injection, schedule: Q01DX009 (ip), vehicle: saline with Tween-80.
Where [7] appears, read: dose: 200.0 mg/kg/injection, schedule: Q04DX002 (ip), vehicle: saline with Tween-80.
Setting [8] is: dose: 400.0 mg/kg/injection, schedule: Q01DX009 (ip), vehicle: saline with Tween-80.
The mark [9] stands for this setting: dose: 400.0 mg/kg/injection, schedule: Q04DX002 (ip), vehicle: saline with Tween-80.
Where [10] appears, read: dose: 100.0 mg/kg/injection, schedule: Q04DX003 (ip), vehicle: saline with Tween-80.
Where [11] appears, read: dose: 200.0 mg/kg/injection, schedule: Q04DX003 (ip), vehicle: saline with Tween-80.
[12] abbreviates: dose: 400.0 mg/kg/injection, schedule: Q04DX003 (ip), vehicle: saline with Tween-80.
The mark [13] stands for this setting: dose: 100.0 mg/kg/injection, schedule: Q01DX009 (ip), vehicle: saline with Tween-80.

SMILES strings stand for the structures. Where “and” joins values, the source holds several entries; their conditions need not be identical. Equal values may be shown once. Toxic doses and inconclusive results are not listed.

For the compound `NC(=O)CC(N)C(=O)O` (stereo unspecified), the T/C is, setting by setting: (dose: 50.0 mg/kg/injection, schedule: Q01DX009 (ip), vehicle: other) 102 % of control; (dose: 50.0 mg/kg/injection, schedule: Q01DX009 (ip), vehicle: saline) 97 % of control; (dose: 100.0 mg/kg/injection, schedule: Q01DX009 (ip), vehicle: other) 98 % of control; (dose: 100.0 mg/kg/injection, schedule: Q01DX009 (ip), vehicle: saline) 101 % of control; (dose: 200.0 mg/kg/injection, schedule: Q01DX009 (ip), vehicle: other) 98 % of control; (dose: 200.0 mg/kg/injection, schedule: Q01DX009 (ip), vehicle: saline) 103 % of control. In addition, the T/C was 104 % of control (dose: 400.0 mg/kg/injection, schedule: Q01DX009 (ip), vehicle: other); 103 % of control (dose: 400.0 mg/kg/injection, schedule: Q01DX009 (ip), vehicle: saline); 104 % of control (dose: 800.0 mg/kg/injection, schedule: Q01DX009 (ip), vehicle: other); 100 % of control (dose: 800.0 mg/kg/injection, schedule: Q01DX009 (ip), vehicle: saline); 98 % of control (dose: 1600.0 mg/kg/injection, schedule: Q01DX009 (ip), vehicle: other); 101 % of control (dose: 1600.0 mg/kg/injection, schedule: Q01DX009 (ip), vehicle: saline).

`O=c1c2ccccc2sc2ccc3ccccc3c12`: the T/C under setting [1] was 106 % of control, the T/C under setting [2] was 101 % of control and the T/C under setting [3] is 101 % of control.

In the case of `CN(C)NC=O`, the T/C by setting is: (dose: 100.0 mg/kg/injection, schedule: Q04DX002 (ip), vehicle: saline) 101 % of control; (dose: 200.0 mg/kg/injection, schedule: Q04DX002 (ip), vehicle: saline) 101 % of control; (dose: 400.0 mg/kg/injection, schedule: Q04DX002 (ip), vehicle: saline) 101 % of control.

Regarding `Cc1c(C)c(C)c(CN2CCC(C)CC2)c(C)c1C`, the T/C (dose: 25.0 mg/kg/injection, schedule: Q01DX009 (ip), vehicle: saline with Tween-80) was 90 % of control; the T/C under setting [4] was 91 % of control; the T/C under setting [5] was 98 % of control; the T/C under setting [6] is 90 % of control; the T/C under setting [7] was 94 % of control; the T/C under setting [8] was 86 % of control. The T/C under setting [9] was 94 % of control.

As for `O=NN(CCCl)C(=O)NCCc1cccc[n+]1[O-]`, the T/C is, setting by setting: (dose: 1.56 mg/kg/injection, schedule: Q01DX001 (ip), vehicle: water) 108 % of control; (dose: 3.13 mg/kg/injection, schedule: Q01DX001 (ip), vehicle: water) 116 % of control; (dose: 6.25 mg/kg/injection, schedule: Q01DX001 (ip), vehicle: water) 121 % of control; (dose: 25.0 mg/kg/injection, schedule: Q01DX001 (ip), vehicle: water) 173 % of control; (dose: 50.0 mg/kg/injection, schedule: Q01DX001 (ip), vehicle: water) 309 % of control; (dose: 100.0 mg/kg/injection, schedule: Q01DX001 (ip), vehicle: water) 240 % of control.

Regarding `CCCCNC(C)C1(O)Cc2c(O)c3c(c(O)c2C(OC2CC(N)C(O)C(C)O2)C1)C(=O)c1c(OC)cccc1C3=O` (stereo unspecified), the T/C is 121 % of control (dose: 10.0 mg/kg/injection, schedule: Q01DX009 (ip), vehicle: water) and 119 % of control (dose: 160.0 mg/kg/injection, schedule: Q01DX009 (ip), vehicle: water).

Regarding `Nc1c([N+](=O)[O-])cncc1[N+](=O)[O-]`, the T/C is 102 % of control (dose: 6.25 mg/kg/injection, schedule: Q01DX009 (ip), vehicle: saline sonified); 98 % of control (dose: 6.25 mg/kg/injection, schedule: Q04DX003 (ip), vehicle: saline with Tween-80); 98 % of control (dose: 12.5 mg/kg/injection, schedule: Q01DX009 (ip), vehicle: saline sonified); 102 % of control (dose: 12.5 mg/kg/injection, schedule: Q04DX003 (ip), vehicle: saline with Tween-80); 98 % of control (dose: 25.0 mg/kg/injection, schedule: Q01DX009 (ip), vehicle: saline sonified); 102 % of control (dose: 25.0 mg/kg/injection, schedule: Q04DX003 (ip), vehicle: saline with Tween-80).

In the case of `Cc1ccccc1NC(=O)Oc1ccc(Cl)cc1C`, the T/C under setting [5] is 101 % of control, the T/C under setting [7] was 93 % of control and the T/C under setting [9] is 97 % of control.

`N#CSCc1ccccc1`: the T/C (dose: 12.5 mg/kg/injection, schedule: Q01DX009 (ip), vehicle: saline with Tween-80) was 100 % of control.

In the case of `CCN(CC)CCOc1ccc(NC(=O)c2ccccc2)cc1`, the T/C is 101 % of control (dose: 6.25 mg/kg/injection, schedule: Q04DX003 (ip), vehicle: saline); 101 % of control (dose: 12.5 mg/kg/injection, schedule: Q04DX003 (ip), vehicle: saline); 104 % of control (dose: 25.0 mg/kg/injection, schedule: Q04DX003 (ip), vehicle: saline).

`COC(=O)CC1(O)C=CC(=O)C=C1`: the T/C by setting is: (dose: 0.75 mg/kg/injection, schedule: Q01DX009 (ip), vehicle: Klucel (hydroxypropylcellulose) (HPC)) 104 % of control; (dose: 1.5 mg/kg/injection, schedule: Q01DX009 (ip), vehicle: Klucel (hydroxypropylcellulose) (HPC)) 98 % of control; (dose: 3.0 mg/kg/injection, schedule: Q01DX009 (ip), vehicle: Klucel (hydroxypropylcellulose) (HPC)) 95 % of control; (dose: 6.0 mg/kg/injection, schedule: Q01DX009 (ip), vehicle: Klucel (hydroxypropylcellulose) (HPC)) 92 % of control; (dose: 12.0 mg/kg/injection, schedule: Q01DX009 (ip), vehicle: Klucel (hydroxypropylcellulose) (HPC)) 95 % of control.

Take `Cc1ccc(S(=O)(=O)Nc2ccc([N+](=O)[O-])cc2O)cc1`: the T/C is, setting by setting: (dose: 100.0 mg/kg/injection, schedule: Q04DX003 (ip), vehicle: Klucel (hydroxypropylcellulose) (HPC)) 94 % of control; (dose: 200.0 mg/kg/injection, schedule: Q04DX003 (ip), vehicle: Klucel (hydroxypropylcellulose) (HPC)) 94 % of control; (dose: 400.0 mg/kg/injection, schedule: Q04DX003 (ip), vehicle: Klucel (hydroxypropylcellulose) (HPC)) 94 % of control.

On to `CC(C)(CO)Nc1ccc([N+](=O)[O-])cc1`, for which the T/C by setting is: under setting [1], 104 % of control; under setting [2], 106 % of control; under setting [3], 107 % of control.

With `C[CH2][Sn]1([CH2]C)[O]C2C(CO)OC(n3cnc4c(=O)[nH]c(N)nc43)C2[O]1` (stereo unspecified), the T/C (dose: 0.78 mg/kg/injection, schedule: Q01DX005 (ip), vehicle: other) is 100 % of control; the T/C (dose: 1.56 mg/kg/injection, schedule: Q01DX005 (ip), vehicle: other) was 100 % of control; the T/C (dose: 3.13 mg/kg/injection, schedule: Q01DX005 (ip), vehicle: other) was 104 % of control; the T/C (dose: 6.25 mg/kg/injection, schedule: Q01DX005 (ip), vehicle: other) was 102 % of control; the T/C (dose: 12.5 mg/kg/injection, schedule: Q01DX005 (ip), vehicle: other) is 96 % of control and 110 % of control.

With `O=C(Nc1ccccc1)c1ccccc1C(O)(c1ccccc1)c1ccc(Cl)cc1` (stereo unspecified), the T/C by setting is: under setting [10], 95 % of control; under setting [11], 95 % of control; under setting [12], 97 % of control.

For `CC(C)c1cccc(O)c(=O)c1`, the T/C under setting [4] is 102 % of control and the T/C under setting [13] is 100 % of control.

For the compound `CN(C)CC(C)(C)C(=O)c1ccc(F)cc1`, the T/C is, setting by setting: (dose: 12.5 mg/kg/injection, schedule: Q04DX002 (ip), vehicle: saline) 104 % of control; (dose: 25.0 mg/kg/injection, schedule: Q04DX002 (ip), vehicle: saline) 101 % of control; (dose: 50.0 mg/kg/injection, schedule: Q04DX002 (ip), vehicle: saline) 96 % of control.

Consider `C1=CCC(CNc2ncnc3nc[nH]c23)=CC1`, for which the T/C is 100 % of control under setting [13]; 98 % of control under setting [10]; 100 % of control under setting [6]; 98 % of control under setting [11]; 88 % of control under setting [8]; 104 % of control under setting [12].

The values are drawn from PubChem BioAssay AID256 (DTP/NCI, 2004).
